We go through nine compounds from patent US20230106032A1, “IMIDAZOTRIAZINES ACTING ON CANCER VIA INHIBITION OF CDK12” (Bayer Aktiengesellschaft, priority 2020, published 2023).

A value given as a limit tells only on which side of the number the result lay.

One experiment concerns the target T1, CDK9/CycT1 (Homo sapiens, UniProt P50750).
T1 construct: Recombinant full-length His-tagged human CDK9 and CycT1, expressed in insect cells; His; purchased Life Technologies PV4131; host or cells: insect cells
In words: CDK9/CycT1 high ATP kinase assay (TR-FRET, 2 mM ATP). The class given is biochemical. The note with it: read-out: CDK9/CyclinT1, 2 mM ATP (high ATP) IC50-[mol/l] (median). Here is the method:
CDK9/CycT1-inhibitory activity of compounds of the present invention at a high ATP concentration after preincubation of enzyme and test compounds was quantified employing the CDK9/CycT1 TR-FRET assay as described in the following paragraphs.
Recombinant full-length His-tagged human CDK9 and CycT1, expressed in insect cells and purified by Ni-NTA affinity chromatography, were purchased from Life Technologies (Cat. No PV4131). As substrate for the kinase reaction biotinylated peptide biotin-Ttds-YISPLKSPYKISEG (C-terminus in amide form) was used which can be purchased e.g. form the company JERINI peptide technologies (Berlin, Germany).
For the assay 50 nanoL of a 100 fold concentrated solution of the test compound in DMSO was pipetted into either a black low volume 384 well microtiter plate or a black 1536 well microtiter plate (both Greiner Bio-One, Frickenhausen, Germany), 2 microL of a solution of CDK9/CycT1 in aqueous assay buffer [50 millimol/L Tris/HCl pH 8.0, 10 millimol/L MgCl2, 1.0 millimol/L dithiothreitol, 0.1 millimol/L sodium ortho-vanadate, 0.01% (v/v) Nonidet-P40 (Sigma)] were added and the mixture was incubated for 15 min at 22° C. to allow pre-binding of the test compounds to the enzyme before the start of the kinase reaction. Then the kinase reaction was started by the addition of 3 microL of a solution of adenosine-tri-phosphate (ATP, 3.3 millimol/L=> final conc. in the 5 microL assay volume is 2 millimol/L) and substrate (1.25 micromol/L=> final conc. in the 5 microL assay volume is 0.75 micromol/L) in assay buffer and the resulting mixture was incubated for a reaction time of 25 min at 22° C. The concentration of CDK9/CycT1 was adjusted depending of the activity of the enzyme lot and was chosen appropriate to have the assay in the linear range, typical concentrations were in the range of 0.5 microg/ml. The reaction was stopped by the addition of 3 microL of a solution of TR-FRET detection reagents (0.33 micromol/L streptavidine-XL665 [Cisbio Bioassays, Codolet, France] and 1.67 nanomol/L anti-RB(pSer807/pSer8l 1)-antibody from BD Pharmingen [#558389] and 2 nanomol/L LANCE EU-W1024 labeled anti-mouse IgG antibody [Perkin-Elmer, product no. AD0077]) in an aqueous EDTA-solution (167 millimol/L EDTA, 0.2% (w/v) bovine serum albumin in 100 millimol/L HEPES pH 7.5).
The resulting mixture was incubated 1 h at 22° C. to allow the formation of complex between the phosphorylated biotinylated peptide and the detection reagents. Subsequently the amount of phosphorylated substrate was evaluated by measurement of the resonance energy transfer from the Eu-chelate to the streptavidine-XL. Therefore, the fluorescence emissions at 620 nm and 665 nm after excitation at 350 nm was measured in a TR-FRET reader, e.g. a Pherastar (BMG Labtechnologies, Offenburg, Germany) or a Viewlux (Perkin-Elmer). The ratio of the emissions at 665 nm and at […] was taken as the measure for the amount of phosphorylated substrate. The data were normalised (enzyme reaction without inhibitor=0% inhibition, all other assay components but no enzyme=100% inhibition).
In general terms: Time-resolved FRET reads energy transfer from a long-lived donor to a nearby acceptor.

In experiment [1] the test system is CAL-120 human breast adenocarcinoma cells. In words: Proliferation assay CAL-120 (crystal violet). Type of experiment: cell-based. The note with it: 96 h, CAL-120 cells, 4 days, read-out: Prolif-CAL-120_ IC50-[mol/l] (median). The method, then: Human tumour cells were originally obtained from the American Type Culture Collection (ATCC), or from the Deutsche Sammlung von Mikroorganismen und Zellkulturen (DSMZ, German Collection of Microorganisms and Cell Cultures). Cultivated tumour cells (CAL-120, human breast adenocarcinoma cells, DSMZ ACC-459; MDA-MB-231, human breast cancer cells, ATCC HTB-26) were plated at a density of 4,000 cells/well in a 96-well multititer plate in 200 microL of their respective growth medium supplemented 10% fetal calf serum. After 24 hours, the cells of one plate (zero-point plate) were stained with crystal violet (see below), while the medium of the other plates was supplemented with the test substances in various concentrations (0 micromol/L, as well as in the range of 0.01-10 micromol/L; the final concentration of the solvent dimethyl sulfoxide was adjusted to 0.1%) using a Tecan HP D300 Digital Dispenser. The cells were incubated for 4 days in the presence of test substances. Cell proliferation was determined by staining the cells with crystal violet: the cells were fixed by adding 20 microL/measuring point of an 11% glutaric aldehyde solution for 15 minutes at room temperature. After three washing cycles of the fixed cells with water, the plates were dried at room temperature. The cells were stained by adding 100 microL/measuring point of a 0.1% crystal violet solution (pH 3.0). After three washing cycles of the stained cells with water, the plates were dried at room temperature. The dye was dissolved by adding 100 microL/measuring point of a 10% acetic acid solution. The extinction was determined by photometry at a wavelength of 595 nm. The change of cell number, in percent, was calculated by normalization of the measured values to the extinction values of the zero-point plate (=0%) and the extinction of the untreated (0 μM) cells (=100%). The IC50 values (inhibitory concentration at 50% of maximal effect) were determined by means of a 4 parameter fit.

Another experiment concerns the target T2, CDK12 (Homo sapiens, UniProt Q9NYV4).
T2 construct: endogenous in cells; host or cells: CAL-120 human breast cancer cells (DSMZ ACC 459)
As to the kind of experiment: CDK12 nuclear protein level: immunofluorescence/high content analysis in CAL-120 cells. The class given is cell-based. The note with it: for DC50: CAL-120 cells, 24 h, nuclear CDK12 staining, read-out: CDK12 degradation IF DC50-[mol/l] (median); for (IC50 CDK12 high ATP) to (Degradation DC50 CDK12) ratio: IC50 CDK12 hATP (Table 2) divided by DC50 CDK12 IF (Table 8). Here is the method:
In the context of the present invention, the term “DC50 CDK12” refers to the DC50 values obtained according to the assay described in this section (6) herein below, i.e. the DC50 values for the degradation of CDK12.
CAL-120 human breast cancer cells (DSMZ ACC 459) are seeded in 1536-well microtiter plates (800 cells per well) containing 50 nanoL of compounds in Dose-Response. Control wells received DMSO or Reference Example 1. Plates are then incubated for 24 h at 37° C. in an humidified incubator and fixed with 4% PFA for 10 min. Then immunofluorescence (IF) against CDK12 (CellSignalling CDK12 Antibody #11973, rabbit, 1:100 dilution) is performed using standard IF protocols. Cells are then stained with Hoechst 33342 (Life Technologies, H-1399, 0.1 microg/ml) and imaged on an automated confocal microscopy system (e.g. Perkin Elmer Opera Phenix). Nuclear and cytoplasmic intensity as well as the nuclear/cytoplasmic intensity ratio is determined by automated image analysis using custom generated scripts (MetaXpress). Data is then transferred to Genedata Screener software, normalized to DMSO and control and DC50 values (degrading concentration to achieve 50% reduction of nuclear CDK12 staining intensity relative to controls) are reported.

T2 sequence (Q9NYV4 whole entry): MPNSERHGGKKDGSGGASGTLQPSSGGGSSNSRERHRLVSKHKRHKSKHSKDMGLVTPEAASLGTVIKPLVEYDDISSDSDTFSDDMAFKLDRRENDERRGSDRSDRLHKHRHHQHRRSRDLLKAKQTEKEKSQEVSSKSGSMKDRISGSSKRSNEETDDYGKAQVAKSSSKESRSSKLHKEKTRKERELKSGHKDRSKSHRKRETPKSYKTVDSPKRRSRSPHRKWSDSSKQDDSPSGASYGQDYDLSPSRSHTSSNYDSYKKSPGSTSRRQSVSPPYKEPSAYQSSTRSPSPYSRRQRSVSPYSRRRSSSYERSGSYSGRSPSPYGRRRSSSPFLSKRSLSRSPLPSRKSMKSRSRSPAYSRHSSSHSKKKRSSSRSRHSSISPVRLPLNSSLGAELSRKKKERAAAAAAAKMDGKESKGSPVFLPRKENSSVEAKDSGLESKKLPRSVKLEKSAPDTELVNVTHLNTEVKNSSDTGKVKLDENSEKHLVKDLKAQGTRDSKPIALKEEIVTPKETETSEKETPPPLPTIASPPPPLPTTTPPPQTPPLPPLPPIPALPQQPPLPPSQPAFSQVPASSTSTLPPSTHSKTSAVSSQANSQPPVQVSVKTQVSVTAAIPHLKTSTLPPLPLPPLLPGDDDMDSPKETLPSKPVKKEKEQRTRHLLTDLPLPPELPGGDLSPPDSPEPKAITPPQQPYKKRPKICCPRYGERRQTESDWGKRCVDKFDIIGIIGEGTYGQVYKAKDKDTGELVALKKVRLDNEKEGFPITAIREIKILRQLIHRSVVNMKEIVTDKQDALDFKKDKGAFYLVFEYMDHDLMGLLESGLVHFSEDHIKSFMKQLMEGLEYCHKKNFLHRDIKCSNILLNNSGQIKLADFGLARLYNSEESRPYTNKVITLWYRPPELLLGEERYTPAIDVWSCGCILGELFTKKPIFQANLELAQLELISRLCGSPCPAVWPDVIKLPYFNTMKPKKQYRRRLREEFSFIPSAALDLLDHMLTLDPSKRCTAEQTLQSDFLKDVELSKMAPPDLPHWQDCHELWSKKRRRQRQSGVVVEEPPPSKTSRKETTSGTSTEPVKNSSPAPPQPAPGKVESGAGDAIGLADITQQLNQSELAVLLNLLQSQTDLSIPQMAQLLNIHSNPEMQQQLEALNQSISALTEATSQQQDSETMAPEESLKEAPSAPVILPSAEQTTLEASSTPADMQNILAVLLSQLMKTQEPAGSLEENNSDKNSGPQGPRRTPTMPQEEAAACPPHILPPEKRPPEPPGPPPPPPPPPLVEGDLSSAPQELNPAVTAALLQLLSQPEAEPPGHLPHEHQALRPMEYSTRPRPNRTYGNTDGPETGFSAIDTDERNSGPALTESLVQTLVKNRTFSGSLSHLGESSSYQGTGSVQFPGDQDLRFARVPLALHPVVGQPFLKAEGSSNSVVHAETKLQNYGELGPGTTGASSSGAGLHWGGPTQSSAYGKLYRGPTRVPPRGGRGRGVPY
T2 sequence (O75909 whole entry partner): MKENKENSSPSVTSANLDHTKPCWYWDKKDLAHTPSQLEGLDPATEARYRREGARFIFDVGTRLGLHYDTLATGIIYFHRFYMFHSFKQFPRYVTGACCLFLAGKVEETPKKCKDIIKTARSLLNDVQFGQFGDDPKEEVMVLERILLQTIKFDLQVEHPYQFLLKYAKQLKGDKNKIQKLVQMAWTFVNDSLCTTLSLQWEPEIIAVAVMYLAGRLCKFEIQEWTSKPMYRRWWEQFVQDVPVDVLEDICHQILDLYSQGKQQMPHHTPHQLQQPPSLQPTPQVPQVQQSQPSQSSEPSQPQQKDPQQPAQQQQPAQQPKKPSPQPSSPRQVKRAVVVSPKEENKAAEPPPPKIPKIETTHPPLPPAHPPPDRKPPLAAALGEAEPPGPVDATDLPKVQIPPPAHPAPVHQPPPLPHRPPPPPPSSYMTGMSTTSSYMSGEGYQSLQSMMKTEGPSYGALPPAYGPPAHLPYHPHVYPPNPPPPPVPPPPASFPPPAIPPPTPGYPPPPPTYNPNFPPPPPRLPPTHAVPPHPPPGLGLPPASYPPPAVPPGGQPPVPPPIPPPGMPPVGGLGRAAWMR
T1 sequence (P50750 whole entry): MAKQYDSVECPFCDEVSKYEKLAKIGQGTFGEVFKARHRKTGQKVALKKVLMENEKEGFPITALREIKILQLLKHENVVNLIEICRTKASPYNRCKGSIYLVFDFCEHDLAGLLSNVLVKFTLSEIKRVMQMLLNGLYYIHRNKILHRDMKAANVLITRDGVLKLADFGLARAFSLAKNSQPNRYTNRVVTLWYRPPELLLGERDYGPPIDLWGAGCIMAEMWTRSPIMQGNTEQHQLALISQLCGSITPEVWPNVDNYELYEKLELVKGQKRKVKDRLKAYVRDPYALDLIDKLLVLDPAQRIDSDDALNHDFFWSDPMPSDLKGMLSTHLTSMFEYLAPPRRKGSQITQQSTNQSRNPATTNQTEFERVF
T1 sequence (O60563 whole entry partner): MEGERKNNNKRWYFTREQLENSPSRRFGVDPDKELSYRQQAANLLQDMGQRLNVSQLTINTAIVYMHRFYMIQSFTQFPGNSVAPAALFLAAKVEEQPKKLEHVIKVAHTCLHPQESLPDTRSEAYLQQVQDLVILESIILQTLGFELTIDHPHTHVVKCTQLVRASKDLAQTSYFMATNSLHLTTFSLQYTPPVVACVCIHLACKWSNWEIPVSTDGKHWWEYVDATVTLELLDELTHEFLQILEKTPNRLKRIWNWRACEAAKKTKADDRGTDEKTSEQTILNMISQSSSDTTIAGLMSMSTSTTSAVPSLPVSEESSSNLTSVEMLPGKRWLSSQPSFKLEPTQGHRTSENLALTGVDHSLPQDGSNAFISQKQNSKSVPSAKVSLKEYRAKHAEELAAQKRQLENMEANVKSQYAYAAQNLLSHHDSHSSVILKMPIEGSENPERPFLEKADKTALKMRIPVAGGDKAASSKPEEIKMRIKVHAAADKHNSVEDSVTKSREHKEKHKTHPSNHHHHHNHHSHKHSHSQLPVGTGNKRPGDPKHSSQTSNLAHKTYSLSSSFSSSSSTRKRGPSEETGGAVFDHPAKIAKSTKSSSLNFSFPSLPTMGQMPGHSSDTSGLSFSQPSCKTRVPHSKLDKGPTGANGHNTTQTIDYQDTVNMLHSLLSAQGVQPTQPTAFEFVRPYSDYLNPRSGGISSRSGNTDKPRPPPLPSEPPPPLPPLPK

For the compound `COc1cccc2[nH]c(CNc3nc(N4C[C@@H](C)N[C@@H](C)C4)nn4c(Br)cnc34)nc12` [Example 14, 7-bromo-2-[rel-(3R,5S)-3,5-dimethylpiperazin-1-yl]-N-[(4-methoxy-1H-benzimidazol-2-yl)methyl]imidazo[2,1-f][1,2,4]triazin-4-amine], on CDK9/CycT1, the IC50 was over 18100 nM. The IC50 in experiment [1] worked out at 2.33 nM. For the same compound, on CDK12, the DC50 was 0.495 nM and the “(IC50 CDK12 high ATP) to (Degradation DC50 CDK12) ratio” value is listed as 4066.
The like results for `CN1CCN(c2nc(NCc3nc4cc(F)ccc4[nH]3)c3ncc(Br)n3n2)CC1` [Example 21, 7-bromo-N-[(5-fluoro-1H-benzimidazol-2-yl)methyl]-2-(4-methylpiperazin-1-yl)imidazo[2,1-f][1,2,4]triazin-4-amine] were, in that order, over 20000 nM, 4.82 nM, 2.78 nM and 5916.
The like results for `C[C@@H]1CN(c2nc(NCc3nc4ccccc4[nH]3)c3ncc(Br)n3n2)C[C@H](C)N1` [Example 9, N-[(1H-benzimidazol-2-yl)methyl]-7-bromo-2-[rel-(3R,5S)-3,5-dimethylpiperazin-1-yl]imidazo[2,1-f][1,2,4]triazin-4-amine] were, in that order, over 20000 nM, 2.04 nM, 0.575 nM and 8519.
Turning to `C[C@@H]1CN(c2nc(NCc3nc4ccccc4[nH]3)c3ncc(C(F)(F)F)n3n2)C[C@H](C)N1.O=CO` [Example 24, N-[(1H-benzimidazol-2-yl)methyl]-2-[rel-(3R,5S)-3,5-dimethylpiperazin-1-yl]-7-(trifluoromethyl)imidazo[2,1-f][1,2,4]triazin-4-amine Formate (1/1)], the IC50 at CDK9/CycT1 is over 20000 nM. Moreover, in experiment [1], the IC50 is 1.2 nM. Also, on CDK12, the DC50 was 0.274 nM and the “(IC50 CDK12 high ATP) to (Degradation DC50 CDK12) ratio” value stood at 2691.
For `COc1cccc2[nH]c(CNc3nc(N4CCN(C)CC4)nn4c(Br)cnc34)nc12.O=CO` [Example 16, 7-bromo-N-[(4-methoxy-1H-benzimidazol-2-yl)methyl]-2-(4-methylpiperazin-1-yl)imidazo[2,1-f][1,2,4]triazin-4-amine Formate (1/1)] the same measures were over 20000 nM, 5.89 nM, 1.32 nM and 4779.
As for `Fc1cccc2[nH]c(CNc3nc(N4CCNCC4)nn4c(Br)cnc34)nc12` [Example 22, 7-bromo-N-[(4-fluoro-1H-benzimidazol-2-yl)methyl]-2-(piperazin-1-yl)imidazo[2,1-f][1,2,4]triazin-4-amine], the IC50 at CDK9/CycT1 is over 19700 nM. Besides, the IC50 in experiment [1] is 3.06 nM. Also, at CDK12, the DC50 is 1.96 nM and the “(IC50 CDK12 high ATP) to (Degradation DC50 CDK12) ratio” value is 1305.
For `Fc1ccc2[nH]c(CNc3nc(N4CCOCC4)nn4c(C(F)(F)F)cnc34)nc2c1F` [Example 27, N-[(4,5-difluoro-1H-benzimidazol-2-yl)methyl]-2-(morpholin-4-yl)-7-(trifluoromethyl)imidazo[2,1-f][1,2,4]triazin-4-amine] the same measures were 6740 nM, 2.01 nM, 1.1 nM and 10.
On to `CN(CC(C)(C)O)c1nc(NCc2nc3ccccc3[nH]2)c2ncc(C(F)(F)F)n2n1` [Example 30, 1-[{4-[(1H-benzimidazol-2-ylmethyl)amino]-7-(trifluoromethyl)imidazo[2,1-f][1,2,4]triazin-2-yl}(methyl)amino]-2-methylpropan-2-ol], for which, at CDK9/CycT1, the IC50 worked out at 10800 nM. For the same compound, the IC50 in experiment [1] turned out to be 9.95 nM. Also, on CDK12, the DC50 was found to be 13.8 nM and the “(IC50 CDK12 high ATP) to (Degradation DC50 CDK12) ratio” value was determined as 12.
The like results for `CN1CCN(c2nc(NCc3nc4ccccc4[nH]3)c3ncc(Br)n3n2)CC1` [Example 6, N-[(1H-benzimidazol-2-yl)methyl]-7-bromo-2-(4-methylpiperazin-1-yl)imidazo[2,1-f][1,2,4]triazin-4-amine] were, in that order, over 20000 nM, 61.4 nM, 3.84 nM and over 4836.
